Measured values taken from patent US20140329797A1, “SUBSTITUTED OXADIAZOLYL PYRIDINONES AND OXADIAZOLYL PYRIDAZINONES AS HIF INHIBITORS” (Bayer Intellectual Property GmbH, priority 2011, published 2014).
pIC50: −log10 of the molar value.

Each compound was assayed on HCT 116 cells transfected with a luciferase reporter under the control of an HIF-responsive sequence (assay: HIF-luciferase assay). Settings: Homo sapiens; HCT 116 HIF-luciferase reporter cells, hypoxia chamber (1% O2), 24 h; in some cases means of up to four individual determinations.
Type: cell-based
Method: B-1. HIF-Luciferase Assay
HCT 116 cells were transfected in a stable manner with a plasmid which contained a luciferase reporter under the control of an HIF-responsive sequence. These cells were sown in microtitre plates [20000 cells/cavity in RPMI 1640 medium with 10% foetal calf serum (FCS) and 100 μg/ml of hygromycin]. Incubation was carried out overnight under standard conditions (5% CO2, 21% O2, 37° C., moistened). The following morning the cells were incubated with various concentrations of the test substances (0-10 μmol/l) in a hypoxia chamber (1% O2). After 24 h, Bright Glo reagent (Promega, Wisconsin, USA) was added in accordance with the manufacturer's instructions, and after 5 min the luminescence was measured. Cells which were incubated under normoxia served as background controls.

`O=C(c1cccc(Cn2nc(-c3nc(-c4ccc(OC(F)(F)F)cc4)no3)ccc2=O)c1)N1CC(O)C1` [Example 76, 2-{3-[(3-Hydroxyazetidin-1-yl)carbonyl]benzyl}-6-{3-[4-(trifluoromethoxy)phenyl]-1,2,4-oxadiazol-5-yl}pyridazin-3(2H)-one] and `O=C(c1cccc(Cn2nc(-c3nc(-c4ccc(OC(F)(F)F)cc4)no3)ccc2=O)c1)N1CCC(O)CC1` [Example 82, 2-{3-[(4-Hydroxypiperidin-1-yl)carbonyl]benzyl}-6-{3-[4-(trifluoromethoxy)phenyl]-1,2,4-oxadiazol-5-yl}pyridazin-3(2H)-one] are within 0.2 log units of each other in pIC50: 7.70 for the first, 7.82 for the second.

First: O=C(c1cccc(Cn2nc(-c3nc(-c4ccc(OC(F)(F)F)cc4)no3)ccc2=O)c1)N1CCCC1 [Example 78, 2-[3-(Pyrrolidin-1-ylcarbonyl)benzyl]-6-{3-[4-(trifluoromethoxy)phenyl]-1,2,4-oxadiazol-5-yl}pyridazin-3(2H)-one]
Second: O=C(c1cccc(Cn2nc(-c3nc(-c4ccc(OC(F)(F)F)cc4)no3)ccc2=O)c1)N1CCOCC1 [Example 84, 2-[3-(Morpholin-4-ylcarbonyl)benzyl]-6-{3-[4-(trifluoromethoxy)phenyl]-1,2,4-oxadiazol-5-yl}pyridazin-3(2H)-one]
The pIC50 of the first is 0.60 log units higher: 8.30 for the first, 7.70 for the second. The first is the more potent here.

`O=C(c1cccc(Cn2nc(-c3nc(-c4ccc(OC(F)(F)F)cc4)no3)ccc2=O)c1)N1CCCO1` [Example 80, 2-[3-(1,2-Oxazolidin-2-ylcarbonyl)benzyl]-6-{3-[4-(trifluoromethoxy)phenyl]-1,2,4-oxadiazol-5-yl}pyridazin-3(2H)-one] and `O=C(c1cccc(Cn2nc(-c3nc(-c4ccc(OC(F)(F)F)cc4)no3)ccc2=O)c1)N1CCN(C2CC2)CC1` [Example 87, 2-{3-[(4-Cyclopropylpiperazin-1-yl)carbonyl]benzyl}-6-{3-[4-(trifluoromethoxy)phenyl]-1,2,4-oxadiazol-5-yl}pyridazin-3(2H)-one] are the same in pIC50: 8.30 for the first, 8.30 for the second.

First: CN1CCN(C(=O)c2cccc(Cn3nc(-c4nc(-c5ccc(C(C)(C)C(F)(F)F)cc5)no4)ccc3=O)c2)CC1 [Example 86, 2-{3-[(4-Methylpiperazin-1-yl)carbonyl]benzyl}-6-{3-[4-(1,1,1-trifluoro-2-methylpropan-2-yl)phenyl]-1,2,4-oxadiazol-5-yl}pyridazin-3(2H)-one]
Second: CC(C)(c1ccc(-c2noc(-c3ccc(=O)n(Cc4cccc(C5(CO)CC5)c4)n3)n2)cc1)C(F)(F)F [Example 93, 2-{3-[1-(Hydroxymethyl)cyclopropyl]benzyl}-6-{3-[4-(1,1,1-trifluoro-2-methylpropan-2-yl)phenyl]-1,2,4-oxadiazol-5-yl}pyridazin-3(2H)-one]
The pIC50 of the first is 0.20 log units lower: 7.40 for the first, 7.60 for the second.

First: CC(=O)OC1(c2cccc(Cn3nc(-c4nc(-c5ccc(OC(F)(F)F)cc5)no4)ccc3=O)c2)CC1 [Example 89, 1-(3-{[6-oxo-3-{3-[4-(trifluoromethoxy)phenyl]-1,2,4-oxadiazol-5-yl}pyridazin-1(6H)-yl]methyl}phenyl)cyclopropyl acetate]
Second: O=c1ccc(-c2nc(-c3ccc(OC(F)(F)F)cc3)no2)nn1Cc1cccc(C2(CO)CC2)c1 [Example 92, 2-{3-[1-(Hydroxymethyl)cyclopropyl]benzyl}-6-{3-[4-(trifluoromethoxy)phenyl]-1,2,4-oxadiazol-5-yl}pyridazin-3(2H)-one]
The pIC50 of the first is 0.30 log units higher: 8.30 for the first, 8.00 for the second. The first is the more potent here.

First: CC(C)(O)Cc1cccc(Cn2nc(-c3nc(-c4ccc(OC(F)(F)F)cc4)no3)ccc2=O)c1 [Example 90, 2-[3-(2-Hydroxy-2-methylpropyl)benzyl]-6-{3-[4-(trifluoromethoxy)phenyl]-1,2,4-oxadiazol-5-yl}pyridazin-3(2H)-one]
Second: CC(C)(O)Cc1cccc(Cn2nc(-c3nc(-c4ccc(C(C)(C)C(F)(F)F)cc4)no3)ccc2=O)c1 [Example 91, 2-[3-(2-Hydroxy-2-methylpropyl)benzyl]-6-{3-[4-(1,1,1-trifluoro-2-methylpropan-2-yl)phenyl]-1,2,4-oxadiazol-5-yl}pyridazin-3(2H)-one]
The pIC50 of the first is 0.82 log units higher: 8.22 for the first, 7.40 for the second.

Compared with `N#CC1CCN(c2cc(Cn3nc(-c4nc(-c5ccc(OC(F)(F)F)cc5)no4)ccc3=O)ccn2)CC1` [Example 94, 1-(4-{[6-oxo-3-{3-[4-(trifluoromethoxy)phenyl]-1,2,4-oxadiazol-5-yl}pyridazin-1(6H)-yl]methyl}pyridin-2-yl)piperidine-4-carbonitrile], `CC(C)(c1ccc(-c2noc(-c3ccc(=O)n(Cc4ccnc(N5CCC(C#N)CC5)c4)n3)n2)cc1)C(F)(F)F` [Example 95, 1-(4-{[6-oxo-3-{3-[4-(1,1,1-trifluoro-2-methylpropan-2-yl)phenyl]-1,2,4-oxadiazol-5-yl}pyridazin-1(6H)-yl]methyl}pyridin-2-yl)piperidine-4-carbonitrile] is 0.30 log units lower in pIC50: 7.70 for the first, 7.40 for the second. The first is the more potent here.

First: O=c1ccc(-c2nc(-c3ccc(OC(F)(F)F)cc3)no2)nn1Cc1ccnc(N2CCN(C3CC3)CC2)c1 [Example 96, 2-{[2-(4-Cyclopropylpiperazin-1-yl)pyridin-4-yl]methyl}-6-{3-[4-(trifluoromethoxy)phenyl]-1,2,4-oxadiazol-5-yl}pyridazin-3(2H)-one]
Second: CC(C)(c1ccc(-c2noc(-c3ccc(=O)n(Cc4ccnc(N5CCN(C6CC6)CC5)c4)n3)n2)cc1)C(F)(F)F [Example 97, 2-{[2-(4-Cyclopropylpiperazin-1-yl)pyridin-4-yl]methyl}-6-{3-[4-(1,1,1-trifluoro-2-methylpropan-2-yl)phenyl]-1,2,4-oxadiazol-5-yl}pyridazin-3(2H)-one]
The pIC50 of the first is 0.30 log units higher: 8.82 for the first, 8.52 for the second.

Going from `CNc1ccc(Cn2nc(-c3nc(-c4ccc(OC(F)(F)F)cc4)no3)ccc2=O)cn1` [Example 100, 2-{[6-(Methylamino)pyridin-3-yl]methyl}-6-{3-[4-(trifluoromethoxy)phenyl]-1,2,4-oxadiazol-5-yl}pyridazin-3(2H)-one] to `CNc1ccc(Cn2nc(-c3nc(-c4ccc(C(C)(C)C(F)(F)F)cc4)no3)ccc2=O)cn1` [Example 101, 2-{[6-(Methylamino)pyridin-3-yl]methyl}-6-{3-[4-(1,1,1-trifluoro-2-methylpropan-2-yl)phenyl]-1,2,4-oxadiazol-5-yl}pyridazin-3(2H)-one], the pIC50 falls from 8.22 to 7.82 (0.40 log units).
